# Legend:
# [1] = Potentiation of theophylline transdermal permeation in pig ear skin at pH 7 by Franz diffusion cells method; type: ADME, Sus scrofa; details: artificial membrane
# [2] = Potentiation of theophylline transdermal permeation in pig ear skin by Franz diffusion cells method; type: ADME, cell-based, Sus scrofa; details: artificial membrane
Structure (SMILES),Activity [1],Activity [2]
CCCCCCCCCCCCCCCOC(=O)CCN.Cl,Active,
CCCCCCCCCCCCCOC(=O)CCCCN,Not Active,Active
CCCCCCCCCCCCOC(=O)CCCCCN.Cl,Active,Active
CCCCCCCCCCCCCOC(=O)CCCCN.Cl,Active,
CCCCCCCCCCCOC(=O)CCCCCCN,Not Active,Active
CCCCCCCCCCOC(=O)CCCCCCCN,Not Active,Active
CCCCCCCCCCCCCCOC(=O)CCCN.Cl,Active,
CCCCCCOC(=O)CCCCCCCCCCCN,Not Active,Active
CCCCCCCCCCCCOC(=O)CCCCCN,Not Active,Active
CCCCCCCCCCCOC(=O)CCCCCCN.Cl,Active,Active
CCCCCCCCCCCCCCCOC(=O)CCN,Not Active,Active
CCCCCCOC(=O)CCCCCCCCCCCN.Cl,Active,
CCCCCCCCOC(=O)CCCCCCCCCN.Cl,Active,
CCCCCCCCCCCCCCOC(=O)CCCN,Not Active,Active
CCCCCCCCOC(=O)CCCCCCCCCN,Not Active,Active
CCCCCCCCCCOC(=O)CCCCCCCN.Cl,Active,Active

# Reference: ChEMBL document CHEMBL1158552, “Transkarbams as transdermal permeation enhancers: effects of ester position and ammonium carbamate formation” (Bioorg Med Chem Lett, 2010)
